From US9604931B2, “Nuclear receptor binding agents” (GTx, Inc., priority 2007, dated 2017) come the findings set out here.

Test [1] addresses ERα ligand binding domain (Homo sapiens, UniProt P03372). Nature of the test: Competitive [3H]-estradiol binding assay, ER-α (Example 21). The settings on record: for inhibition at 0.1 µM: 100 nM of compound, read-out: Percent Inhibition of [3H]-Estradiol Binding to ER-α; for Ki: read-out: ER-α binding constant (Ki). Here is the method: (§1) ER binding affinity was determined via one of the following methods:
(§2) Briefly, the incubation mixture was filtered through a high affinity protein binding filter, and washed several times to remove any unbound radioactivity. The filter plate was air dried and sealed on the bottom.
(§3) Nonspecific binding was subtracted from total binding to yield specific binding.

In test [2] the target is ERβ ligand binding domain (Homo sapiens, UniProt Q92731). In words: Competitive [3H]-estradiol binding assay, ER-β (Example 21). Particulars: for inhibition at 0.1 µM: read-out: Percent Inhibition of [3H]-Estradiol Binding to ER-β; for Ki: read-out: ER-β binding constant (Ki). As for the experimental part:
as §1, §2, §3

The next test has as its target ER-β (Rattus norvegicus (Rat), UniProt Q62986). In words: ER-β transactivation (ERE-LUC) in COS or 293 cells. In kind it is cell-based. Particulars: for activation at 0.1 µM: HEK293, 48 h.
The target in a further test is ER-α (Rattus norvegicus (Rat), UniProt P06211). In kind it is cell-based. The settings on record: 100 nM compound compared to 1 nM estradiol. Here is the method:
COS or 293 cells were plated in DME without phenol red+10% cs FBS at 90,000 cells per well in 24 well plates, and were transfected with 0.25 μg of the vector “ERE-LUC”, where a firefly luciferase gene was driven by two estrogen responsive elements and 0.02 μg of the control CMV-LUC, Renilla where a luciferase gene was driven by a CMV promoter. […] All the receptors were cloned from rat tissue into the PCR3.1 vector backbone. Twenty four hours post transfection, cells were treated with compounds of this invention, estrogen, DHT, and other NRBAs or combinations thereof. Cells were harvested 48 hrs after transfection, and assayed for firefly and Renilla luciferase activity.

The subject of another test is rat aorta rings. In words: Rat aortic ring relaxation. The settings on record: 10^-6 PE constriction; for EC50: Rattus norvegicus. The text has this: Experimental protocol. Equipment used in these studies included a 4-tissue bath system with reservoirs and circulators (RadnotiGlass Technology, Monrovia, Calif.), DSI/Ponemah tissue force analyzer 7700 (Valley View, Ohio), and iWorx/CB Sciencesforce transducers FT-302. The 250 g rats were anesthetized with isoflurane to produce deep anesthesia. The chest of the rat was opened, and about 3 cm length of aorta was removed and placed in a Petri dish containing room temperature Krebs salt solution (KSS, in mM: 120 NaCl, 5 KCl, 1.2 MgSO4.7H20, 2.5 CaCl2.2H2O, 1 KH2PO4, 25 NaHCO3, and 11 glucose). Fat and connective tissue were removed from the aorta taking care not to stretch the vessel. The aorta was then divided into 3-mm-wide rings. Triangular wire holders were inserted through the lumen of the vessel and connected to the force transducer and tissue holder rod in the vessel bath.
Analog-to-digital conversions of force waveforms were accomplished with a DSI/Ponemah tissue force analyzer 7700. The converted data were automatically analyzed with Ponemah Physiology-Smooth Muscle software. All data are summarized as means±standard error. Differences between means were assessed by a conventional ANOVA. This was followed by Student's test. P<0.05 was considered to be statistically significant.
The tension on the rings was adjusted to 1.0 g passive force using the tension adjustment dial for each transducer and allowed to equilibrate for 60 min in the bath with a 95% O2-5% CO2 gas mixture. The rings were washed with fresh buffer every 20 min. Passive force was readjusted to 1.0 g as needed during this period. When rings were stable at 1.0 g of passive force, the baseline was calculated.
Phenylephrine (PE) at a final concentration of […] was added to the bath to contract the ring, and force was allowed to stabilize for 10 min. Then acetylcholine (ACH) at a final concentration of 10^−5 M was added to the precontracted rings to test for endothelial integrity […]. After the initial test for vessel viability and endothelial integrity, the rings were washed three times for 10 min with buffer, allowing it to equilibrate to active force stabilized at 1 g.
Cumulative concentration-response curves to NRBAs were created by increasing the NRBAs concentration in the tissue bath by successive addition of appropriate dilutions of stock solutions to achieve final bath concentrations of 300 nM to 0.15 mM NRBAs.
Table 10 summarizes EC50 values and maximal % decrease of the 10^−6 PE constriction of the aortic ring for individual NRBAs tested

For test [3], the system named is Rat Aortic Smooth Muscle Cells (RASMC). In words: RASMC cell proliferation assay (WST-1). In kind it is cell-based. Particulars: for EC50: inhibitory effect sigmoid Emax model, read-out: EC50 for inhibition of RASMC proliferation; for Proliferation of RASMC: concentration between 10-30 μM. Here is the method:
EC50 values were calculated using WinNonLin 5.0.1 using the inhibitory effect sigmoid Emax model.
On the technique in general: Tetrazolium assays rely on reduction of a dye to a coloured formazan, in cell work by metabolically active cells.

In another test the test system is ARPE-19 cells. In words: Fluorescent detection of intracellular ROS. In kind it is cell-based, Human. The settings on record: 150 μM tBH. The text has this: Cells were allowed to adhere overnight. […] Removed and washed cells once with HBSS. […] Each drug concentration was done in triplicates.
[4] abbreviates: read-out: Estradiol activity at 100 nM of NRBA, ER-β.

SMILES strings stand for the structures. Entries after “also recorded” stand apart in the source; their conditions may differ. Where two headings read alike, the source gives them in different places.

ERβ ligand binding domain, sequence (Q92731 whole entry, looked up, the tested form may be a part): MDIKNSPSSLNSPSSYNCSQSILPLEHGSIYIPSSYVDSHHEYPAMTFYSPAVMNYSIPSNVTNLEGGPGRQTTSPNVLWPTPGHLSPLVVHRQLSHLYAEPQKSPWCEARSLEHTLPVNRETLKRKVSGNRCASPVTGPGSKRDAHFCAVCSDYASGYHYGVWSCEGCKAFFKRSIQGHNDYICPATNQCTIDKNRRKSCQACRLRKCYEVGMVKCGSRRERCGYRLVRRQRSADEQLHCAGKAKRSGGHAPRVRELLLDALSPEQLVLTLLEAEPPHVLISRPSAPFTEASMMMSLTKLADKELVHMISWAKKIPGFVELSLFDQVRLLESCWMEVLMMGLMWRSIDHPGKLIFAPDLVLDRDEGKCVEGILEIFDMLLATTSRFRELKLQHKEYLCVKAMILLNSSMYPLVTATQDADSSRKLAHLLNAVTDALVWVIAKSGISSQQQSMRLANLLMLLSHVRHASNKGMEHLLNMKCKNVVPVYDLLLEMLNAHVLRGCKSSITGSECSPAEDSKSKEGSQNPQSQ
ER-β, sequence (Q62986 whole entry): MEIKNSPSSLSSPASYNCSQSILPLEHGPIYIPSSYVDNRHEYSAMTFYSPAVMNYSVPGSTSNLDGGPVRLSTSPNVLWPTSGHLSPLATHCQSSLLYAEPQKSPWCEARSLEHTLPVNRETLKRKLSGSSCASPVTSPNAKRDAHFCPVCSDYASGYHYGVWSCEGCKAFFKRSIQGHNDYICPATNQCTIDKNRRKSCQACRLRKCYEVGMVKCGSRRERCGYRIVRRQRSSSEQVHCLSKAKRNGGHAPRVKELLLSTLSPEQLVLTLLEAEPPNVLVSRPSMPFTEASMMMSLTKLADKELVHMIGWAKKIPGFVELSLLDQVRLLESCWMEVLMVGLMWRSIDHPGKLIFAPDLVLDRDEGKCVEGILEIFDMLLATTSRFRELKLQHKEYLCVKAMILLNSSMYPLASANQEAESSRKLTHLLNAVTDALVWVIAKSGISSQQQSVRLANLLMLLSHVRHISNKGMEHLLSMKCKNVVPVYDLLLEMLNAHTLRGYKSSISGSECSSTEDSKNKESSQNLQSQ
ERα ligand binding domain, sequence (P03372 whole entry, looked up, the tested form may be a part): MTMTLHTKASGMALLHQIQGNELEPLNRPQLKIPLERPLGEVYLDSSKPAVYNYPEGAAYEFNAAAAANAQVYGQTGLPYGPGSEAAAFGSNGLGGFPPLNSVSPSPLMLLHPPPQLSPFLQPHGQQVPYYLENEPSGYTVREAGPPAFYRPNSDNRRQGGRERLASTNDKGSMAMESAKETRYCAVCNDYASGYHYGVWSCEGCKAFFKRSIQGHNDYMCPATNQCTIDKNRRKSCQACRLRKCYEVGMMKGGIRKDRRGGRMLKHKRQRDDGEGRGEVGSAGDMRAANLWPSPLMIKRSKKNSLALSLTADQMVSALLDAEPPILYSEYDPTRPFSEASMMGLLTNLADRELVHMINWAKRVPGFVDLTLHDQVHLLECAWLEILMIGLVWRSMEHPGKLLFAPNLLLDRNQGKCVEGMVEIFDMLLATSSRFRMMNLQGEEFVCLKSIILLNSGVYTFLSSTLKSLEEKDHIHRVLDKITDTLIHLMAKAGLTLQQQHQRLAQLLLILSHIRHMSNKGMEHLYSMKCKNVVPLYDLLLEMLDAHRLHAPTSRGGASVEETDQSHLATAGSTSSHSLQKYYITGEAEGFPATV

As a reminder, the inhibition is the change of the read-out against control, counted positive when it falls. As for `O=c1c2ccc(O)cc2c(Br)cn1-c1ccc(O)c(F)c1` [12d, 4-bromo-2-(3-fluoro-4-hydroxyphenyl)-6-hydroxy-isoquinolin-1(2H)-one], the figures for the inhibition at 0.1 µM in test [1] and in test [2] were 0% and 38.7%, respectively.
Consider `O=c1c2ccc(O)cc2c(Cl)cn1-c1ccc(O)cc1` [12f, 4-chloro-6-hydroxy-2-(4-hydroxyphenyl)-isoquinolin-1(2H)-one], for which the inhibition at 0.1 µM in test [1] was found to be 0%. Further, in test [2], the “Ki Ratio (ER-α/ER-β)” value turned out to be 61 and the inhibition at 0.1 µM was found to be 47.5%. Besides, at ER-β, the ER-β agonist activity entry was “ER-β agonist activity”.
Turning to `O=c1c2ccc(O)cc2c(Cl)cn1-c1ccc(O)c(F)c1` [12g, 4-chloro-2-(3-fluoro-4-hydroxyphenyl)-6-hydroxy-isoquinolin-1(2H)-one], the inhibition at 0.1 µM in test [1] was found to be 0%; in test [2], 29.4%.
Consider `O=c1c2ccc(O)cc2c(I)cn1-c1ccc(O)cc1` [12h, 6-hydroxy-2-(4-hydroxyphenyl)-4-iodoisoquinolin-1(2H)-one], for which the inhibition at 0.1 µM was 7.7% in test [1] and 40.5% in test [2]. In addition, the “Ki Ratio (ER-α/ER-β)” value in test [2] was 22. Besides, the ER-β agonist activity entry on ER-β was “ER-β agonist activity”.
As for `O=c1c2c(O)cc(O)cc2ccn1-c1ccc(O)cc1` [12l, 6,8-dihydroxy-2-(4-hydroxyphenyl)-isoquinolin-1(2H)-one], the values for the inhibition at 0.1 µM in test [1] and in test [2] were 2.5% and 34.4%, respectively.
On to `O=c1c2c(O)cc(O)c(Br)c2ccn1-c1ccc(O)cc1` [12m, 5-bromo-6,8-dihydroxy-2-(4-hydroxyphenyl)isoquinolin-1(2H)-one], for which the figures for the inhibition at 0.1 µM in test [1] and in test [2] were 5.2% and 0%, respectively.
The corresponding values for `O=c1c2ccc(O)cc2c(I)cn1-c1ccc(O)c(F)c1` [12n, 2-(3-fluoro-4-hydroxyphenyl)-6-hydroxy-4-iodoisoquinolin-1(2H)-one] are 6.2% and 8.7%.
As for `Oc1ccc(-n2ccc3cc(O)cc(O)c3c2=S)cc1` [12p, 2-(4-hydroxyphenyl)-6,8-dihydroxy-isoquinoline-1(2H)-thione], the inhibition at 0.1 µM in test [1] stood at 25.8%. For the same compound, in test [2], the “Ki Ratio (ER-α/ER-β)” value was determined as 8 and the inhibition at 0.1 µM stood at 80.7%. Also, the “Estradiol activity at 100 nM of NRBA, ER-α” value (shortened to “Estradiol activity at 100 nM”) on ER-α worked out at 45%. Besides, on ER-β, the ER-β agonist activity result is “ER-β agonists; also recorded: ER-β agonist activity”. Moreover, the activation at 0.1 µM at ER-β (setting [4]) was found to be 85%.
Consider `COc1cc(O)c2c(=O)n(-c3ccc(O)cc3)ccc2c1C#N` [12q, 8-hydroxy-2-(4-hydroxyphenyl)-6-methoxy-1-oxo-1,2-dihydroisoquinoline-5-carbonitrile], for which the “Estradiol activity at 100 nM” value at ER-α was 25%. Also, the activation at 0.1 µM at ER-β (setting [4]) came to 10%.
Regarding `Oc1ccc(-n2cc(Br)c3cc(O)ccc3c2=S)cc1` [12r, 4-bromo-6-hydroxy-2-(4-hydroxyphenyl)isoquinoline-1(2H)-thione], the results for the inhibition at 0.1 µM in test [1] and in test [2] were 35.7% and 75.5%, respectively.
For the compound `O=c1c2c(O)cc(O)cc2ccn1-c1ccc(O)c(F)c1` [12s, 2-(3-fluoro-4-hydroxyphenyl)-6,8-dihydroxyisoquinolin-1(2H)-one], the inhibition at 0.1 µM in test [1] amounted to 4.5%; in test [2] it was 52.8%. Also, the “Ki Ratio (ER-α/ER-β)” value in test [2] came to 25. Besides, at ER-α, the “Estradiol activity at 100 nM” value turned out to be 29%. At ER-β, the ER-β agonist activity entry is listed as “ER-β agonist activity”. The activation at 0.1 µM on ER-β (setting [4]) turned out to be 76.9%.
On to `COc1cc(O)c2c(=O)n(-c3ccc(O)cc3)cc(Br)c2c1` [12v, 4-bromo-8-hydroxy-2-(4-hydroxyphenyl)-6-methoxyisoquinolin-1(2H)-one], for which the “Estradiol activity at 100 nM” value on ER-α was 17%. Besides, at ER-β (setting [4]), the activation at 0.1 µM worked out at 10%.
As a reminder, the Ki is the dissociation constant of the complex between target and ligand, obtained from inhibition or displacement. On to `O=c1c2c(O)cc(O)cc2c(Br)cn1-c1ccc(O)c(F)c1` [12z, 4-bromo-6,8-dihydroxy-2-(3-fluoro-4-hydroxyphenyl)isoquinolin-1(2H)-one], for which the inhibition at 0.1 µM in test [1] came to 52.8%. Further, in test [2], the “Ki Ratio (ER-α/ER-β)” value is reported as 12, the inhibition constant Ki was 3 nM and the inhibition at 0.1 µM was 95.3%. On ER-β, the ER-β agonist activity entry is “ER-β agonist activity”. Moreover, in the test on rat aorta rings, the “Mean of Maximal % Decrease of the PE constriction of the aortic ring” value came out at 83.58% and the EC50 worked out at 15100 nM. The EC50 in test [3] (Rattus norvegicus) turned out to be 25000 nM. Besides, the “Prevention of ROS formation / oxidative stress” value in the test with ARPE-19 cells is given as “able to prevent ROS formation as well as estradiol; also recorded: protected ARPE-19 cells from oxidative damage”.
On to `N#Cc1cc(O)cc2c(Br)cn(-c3ccc(O)cc3)c(=O)c12` [14k, 4-bromo-6-hydroxy-2-(4-hydroxyphenyl)-1-oxo-1,2-dihydroisoquinoline-8-carbonitrile], for which the Ki is more than 394 nM in test [1] and 46 nM in test [2].
As for `C=Cc1cn(-c2ccc(O)cc2)c(=O)c2c(O)cc(O)cc12` [14l, 6,8-dihydroxy-2-(4-hydroxyphenyl)-4-vinylisoquinolin-1(2H)-one], the “Estradiol activity at 100 nM” value on ER-α amounted to 50%. In addition, the activation at 0.1 µM on ER-β (read-out: Estradiol activity at 100 nM of NRBA, ER-β, 100 nM compound compared to 1 nM estradiol) was found to be 52.7%. For the same compound, in the test with rat aorta rings, the “Mean of Maximal % Decrease of the PE constriction of the aortic ring” value amounted to 45.01% and the EC50 was 19800 nM. In test [3] (Rattus norvegicus), the EC50 came to 9630 nM. Further, the “Proliferation of RASMC” value in test [3] was “inhibited the proliferation of RASMC in a dose-dependent manner”. Besides, in the test with ARPE-19 cells, the “Inhibition of ROS formation” value is “more than 50%” and the “Prevention of ROS formation / oxidative stress” value is given as “protected ARPE-19 cells from oxidative damage”.
On to `COc1ccc(-c2cn(-c3ccc(O)cc3)c(=O)c3ccc(O)cc23)cc1` [15b, 6-hydroxy-2-(4-hydroxyphenyl)-4-(4-methoxyphenyl)isoquinolin-1(2H)-one], for which the “Ki Ratio (ER-α/ER-β)” value in test [2] was determined as 8.3.
With `C=Cc1cn(-c2ccc(O)c(F)c2)c(=O)c2c(O)cc(O)cc12` [15c, 2-(3-fluoro-4-hydroxyphenyl)-6,8-dihydroxy-4-vinylisoquinolin-1(2H)-one], the inhibition constant Ki in test [1] was determined as 205 nM. Besides, in test [2], the “Ki Ratio (ER-α/ER-β)” value is 51.7 and the Ki was 3.96 nM.
For the compound `COc1ccc(-c2cn(-c3ccc(O)cc3)c(=O)c3c(O)cc(O)cc23)cc1` [15g, 6,8-dihydroxy-2-(4-hydroxyphenyl)-4-(4-methoxyphenyl)isoquinolin-1(2H)-one], the Ki in test [2] was found to be 0.48 nM.
Consider `O=c1c2c(O)cc(O)cc2c(-c2ccccc2)cn1-c1ccc(O)cc1` [15h, 6,8-dihydroxy-2-(4-hydroxyphenyl)-4-phenylisoquinolin-1(2H)-one], for which the Ki in test [1] is 124 nM. Further, the “Ki Ratio (ER-α/ER-β)” value in test [2] is 41.1.
Taken in the same sequence, the figures for `C/C=C/c1cn(-c2ccc(O)cc2)c(=O)c2c(O)cc(O)cc12` [15i, (E)-6,8-dihydroxy-2-(4-hydroxyphenyl)-4-(prop-1-enyl)isoquinolin-1(2H)-one] were 102 nM and 61.4.
On to `COc1ccc(-c2coc3cc(O)cc(O)c3c2=O)cc1` [Biochanin A, reference compound], for which, in test [3], the “Proliferation of RASMC” value is listed as “inhibited the proliferation of RASMC in a dose-dependent manner” and the EC50 was found to be 9790 nM.
